Results on 3 compounds are retold here after patent US6548072B1, “Skin care compositions containing an organic extract of chick pea” (Chesebrough-Pond's USA Co., division of Conopco, Inc., priority 1997, dated 2003).

Experiment [1] relates to piglet epidermal cells. Description: Piglet skin organ culture, 3H-thymidine incorporation into the epidermis. It is filed as cell-based, pig. From the text: Pig skin is morphologically and biochemically similar to human skin and is therefore used commonly for testing the effects of materials for, human topical use. Fresh shaved skin from piglets was obtained from the local slaughter house, washed with Dove® Soap and dermatomed at 200μ thickness to obtain the top epidermis and dermal layer. Uniform punch biopsies of the dermatomed pig skin was taken using a 7 mm punch. The biopsies were washed in medium containing high antibiotic/antimycotic mix(Kanamycin and penicillin and streptomycin from Gibco) and incubated for 3 days in high glucose DMEM medium containing hydrocortisone, L-glutamine, antibiotic and antimycotic in the absence of serum in transwell plates, 3 biopsies per well. The medium was fed from the bottom of the transwell so that the epidermal side of the biopsies was in contact with air. On the 3rd day, the medium was changed to fresh medium, and the biopsies were exposed to the various concentrations of various actives in 1 μl of DMSO, as indicated in Table 4. 3 days later, medium was changed, actives readded and the biopsies were labeled with 10 μCi of 3H thymidine per well. After washing the biopsies in PBS, the epidermis was split from the dermis by incubating the biopsies for 24 hrs in 2 M sodium bromide solution with shaking. The epidermis was peeled off from the dermis using a tweezer and dissolved in1 ml of 0.5N NaOH with overnight incubation at 60 ° C. 200 μl of the dissolved epidermis was used for scintillation counting to determine the amount of ^3H thymidine incorporation into the epidermis. The data was calculated as mean cpm for at least 4 replicates, and was also calculated as % of control biopsies which received no actives.

In experiment [2] the test system is ZR75 cells. Briefly: 3H-thymidine incorporation (DNA synthesis / proliferation) in ZR75 cells, test for estrogen-like activity. It is filed as cell-based, human. The settings on record: for ZR 75 DNA synthesis (% of Control): Experiment 1; for % of Control / cpm ± SD: 10 nM. An excerpt:
The incorporation of ^3H-thymidine by cultured cells was used as an assay of cell proliferation (ZR75 or keratinocyte). Thymidine is one of four deoxynucleosides which are the monomeric units of DNA. Prior to cell division of a somatic cell, the complete genome of the cell undergoing cell division is replicated. This involves large scale DNA synthesis by the cell and enables both daughter cells to receive identical copies of the genetic material. When ^3H-thymidine is included in the culture media of cells which are synthesizing DNA in preparation for cell division then the labeled thymidine is incorporated into the newly synthesized DNA. The extent of incorporation of ^3H-thymidine into a population of cells is proportional to the rate of DNA synthesis. by this population of cells and therefore an indication of their cellular proliferation.
ZR75 cell line is a ductal breast carcinoma cell line, originally isolated from malignant mammary epithelium of a person (Engel et al., Human breast carcinoma cells in continuous culture: A review., Cancer Res., 38: 4327-4339, 1978) This cell line contains receptors for estrogen, progesterone and other steroid hormones, but responds through an increase in proliferation only to estrogen. The cell line contains high affinity estrogen-specific receptors. Therefore, this cell line is used for testing estrogen-like activity (Markiewicz et al., In vitro bioassays of non-steroidal phytoestrogens, J. Steroid Biochem. Molec. Biol., 45: 399-405, 1993).
1. ZR75 cells (from American Type Culture Collection, Rockville, Md.) were grown in RPMT1640 media (from Gibco Life Technologies) with 10% fetal bovine serum (FBS), 100 units penicillin per ml and 100 units of streptomycin per ml. […] The. cells were seeded at a density of one million per 75 cm2 flask. For the experiment, the cells were seeded in 24 well plates at 100,000 cells per ml per well.
2. After growing for 24 hours, the media was removed, the cells were washed with PBS and 1 ml of RPMI 1640 without serum (but with streptomycin and penicillin) was added. Stock solutions of chick pea extract in dimethyl sulfoxide. (DMSO) and estradiol in water were prepared. […] After another 24 hours, […] of [methyl-3H] thymidine was added to each well. The media was removed after 24 hours. The cells were washed once in PBS, the PBS was removed completely and the cells were left on ice to incubate with 1 ml per well of10% TCA (trichlioroacetic acid) for 30 minutes. The plates were washed 3 times with 5% TCA to remove all traces of thymidine which wasn't incorporated into the cells. 500 μl of 0.1M sodium hydroxide was added to each well and the plates were incubated at room temperature for at least 30 minutes. 250 μl of each sample was transferred to scintillation vials and after adding 5 ml of counting fluid, the vials were counted for 5 minutes each on a setting for tritium. […] Values were expressed as mean of triplicate wells ± standard deviation.
Background: Uptake of a labelled nucleoside into DNA is a usual measure of proliferation.

In the case of `COc1ccc(-c2coc3cc(O)ccc3c2=O)cc1` [Formononetin, formononetin], in experiment [1] (Experiment 1, 1 μg/ml), the “% of Control” value was 126 ± 33.2 % of Control and the “cpm ± SD” value was 4770 ± 1260 cpm. Besides, in experiment [1] (Experiment 1, 10 μg/ml), the “% of Control” value is 174 ± 76.1 % of Control and the “cpm ± SD” value stood at 6608 ± 2886 cpm.

As to `O=c1c(-c2ccc(O)cc2)coc2cc(O)ccc12` [Daidzein, daidzein], the “proliferation of piglet epidermal cells, in words” value in experiment [1] is “more effective than the natural hormone estradiol”. Besides, in experiment [1] (Experiment 1, 1 μg/ml), the “% of Control” value is reported as 227 ± 24.4 % of Control and the “cpm ± SD” value was determined as 8599 ± 927 cpm. For the same compound, in experiment [1] (Experiment 1, 10 μg/ml), the “% of Control” value is reported as 292 ± 76.5 % of Control and the “cpm ± SD” value is 11065 ± 2901 cpm.

In the case of `C[C@]12CC[C@@H]3c4ccc(O)cc4CC[C@H]3[C@@H]1CC[C@@H]2O` [Estradiol, estradiol], the “% of Control” value was 58.9 ± 24.4 % of Control in experiment [1] (Experiment 1, 1 nM); 113 ± 24 % of Control in experiment [1] (Experiment 1, 10 nM); 39.0 ± 32.6 % of Control in experiment [1] (Experiment 1, 100 nM); 196 ± 67.7 % of Control in experiment [1] (Experiment 2, 1 nM); 330 ± 101 % of Control in experiment [1] (Experiment 2, 10 nM); 241 ± 65 % of Control in experiment [1] (Experiment 2, 100 nM). Also, the “% of Control” value in experiment [2] (Experiment 2) is given as 839 ± 27 % of Control; in experiment [2] (Experiment 3), 211 ± 7.6 % of Control. Further, the “cpm ± SD” value in experiment [1] (Experiment 1, 1 nM) is given as 2690 ± 1113 cpm; in experiment [1] (Experiment 1, 10 nM) it was 5190 ± 1096 cpm; in experiment [1] (Experiment 1, 100 nM), 1757 ± 1492 cpm; in experiment [1] (Experiment 2, 1 nM), 2273 ± 783 cpm; in experiment [1] (Experiment 2, 10 nM) it was 3817 ± 1175 cpm; in experiment [1] (Experiment 2, 100 nM) it was 2785 ± 751 cpm. The “cpm ± SD” value in experiment [2] (Experiment 2) was found to be 122254 ± 3940 cpm; in experiment [2] (Experiment 3), 30158 ± 1087 cpm. The “ZR 75 DNA synthesis (% of Control)” value was 117 ± 19.7 % of Control in experiment [2] (0.01 nM); 106 ± 16.3 % of Control in experiment [2] (0.1 nM); 162 ± 3.2 % of Control in experiment [2] (1.0 nM); 267 ± 15.1 % of Control in experiment [2] (10.0 nM); 203 ± 51.2 % of Control in experiment [2] (100 nM); 178 ± 20.1 % of Control in experiment [2] (1000 nM). For the same compound, the “concentration that increased DNA synthesis of ZR75 cells” value in experiment [2] (Table 1) is given as at least 1 nM.
